Reference: US20260378560A1, “APPROACHES TO DESIGNING AND PERFORMING COMPRESSED BIOLOGICAL EXPERIMENTS AND SYSTEMS FOR IMPLEMENTING THE SAME” (EXVIVO LABS INC., priority 2023, published 2026)

Legend:
REH [1] = test: Cell viability (CellTiter Glo), compressed perturbation pools with informed pool design, MAX-based deconvolution, REH; conditions: REH; for DRS: None (measured individually), informed pool design table; for DRS from MAX-based deconvolution: Samples, 7 Pick 3 informed perturbation pools; for DRS, REH, MAX: compressed perturbation pools, informed pool design, MAX-based deconvolution;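 on DRS from MAX-based deconvolution: higher DRS means a larger drug effect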
Procedure, shortened: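 Per-drug DRS recovered by MAX deconvolution, which assumes the strongest pool member masks the rest; after ranking, each drug in turn takes the DRS of the lowest-signal pool containing it, and leftovers score zero. Pools built from drug class and known toxic combinations; dose-response spans 1 nM to 10 μM, read by ATP-based luminescence.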

MOLT-4 = test: Cell viability (CellTiter Glo), library of cancer drugs, individual or sample compression with randomized (alphabetical) pools, MOLT-4; format: cell-based; conditions: for DRS: MOLT-4, None (measured individually); for DRS from deconvolution: MOLT-4, Samples, 7 Pick 3 randomized (alphabetical) sample pools
Procedure, shortened: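 Cells cultured with each drug individually at 1 nM–10 μM; viability by ATP luminescence (CellTiter Glo) to build dose-response curves and DRS. Samples read singly or pooled alphabetically (each drug in 3 of 7 pools), with pooled DRS recovered by additivity-based SUM deconvolution.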

REH [2] = test: ATP-based luminescence cell viability (CellTiter Glo), drug response score, REH; design: scale not given here; conditions: for DRS from deconvolution: Target compression; for DRS, REH, None: no compression (individual drug)
Description: As part of a screen, a drug could be screened at different concentrations ranging from a lowest concentration to a highest concentration. In such a scenario, multiple data structures may be obtained by the screening platform 210. […] With these multiple data structures, the analysis module 218 can generate a dose-response curve that describes the magnitude of the response of the biological target, as a function of exposure to different concentrations of the drug. Further, the analysis module 218 can calculate a metric that is indicative of the response of the biological target. In the event that the biological target is one of multiple biological targets that are introduced to the pools of drugs, the metric can be used by the screening platform 210 to better understand the relative magnitude of responses. One example of a metric is drug-response score (“DRS”). DRS can be calculated as a continuous function of multiple parameters of the non-linear dose-response curve, including the slope at the half-maximal effective concentration (also called “EC50”) and the top and bottom asymptotes of the dose-response curve. DRS can be calculated as follows: […]
where y is a continuous function of the variable dose x, a is the maximal response (i.e., the top asymptote of the curve), b is the slope of the curve, c is the IC50 (i.e., half-maximal inhibitory concentration), and d is the minimal response (i.e., the bottom asymptote of the curve). Other examples of metrics include those output by sigmoidal and Hill slide functions that, like DRS, incorporate multiple aspects of the dose-response curve into a continuous function.
Total cell viability was measured for each cancer cell line using an Adenosine TriPhosphate (“ATP”) assay, and more specifically an ATP-based luminescence assay (i.e., CellTiter Glo). Each cancer drug was screened at multiple concentrations ranging from one nanomolar (nM) to ten micromolar (UM) in order to generate a dose-response curve and calculate a drug response score (“DRS”) for each cancer cell line. The DRS was calculated as a continuous function of multiple parameters of the non-linear dose-response curve, including the slope at the half-maximal effective concentration (also called “EC50”) and the top and bottom asymptotes of the dose-response curve. […] After total cell viability was measured and DRS was calculated, the DRS of each cancer cell line in the pool was deconvolved for each cancer drug.
DRS for these anchor cell lines are bolded and italicized. Anchors can be identified based on frequency of the cell lines in pools with high DRS versus low DRS. At a high level, an anchor is predicted to be the cell line with the lowest individual DRS. In order to deconvolute individual cell line DRS values from pool DRS values, the anchor can start with an assumed DRS value of zero. Each pool can then be expressed as a polynomial of variables (cell lines in the pool) and constants (DRS value of the pool). The DRS value of each cell line can then be solved for using the anchor value and overlapping polynomial expressions. When multiple values are calculated for the final target solved from the polynomials, then the anchor has a non-zero value that can be determined based on the difference in the calculated value of the final target.
Each pool represented a co-culture of three cell lines (“Target Compression”).

SMILES	DRS (REH [1])	DRS from MAX-based deconvolution (REH [1])	DRS (MOLT-4)	DRS from deconvolution (MOLT-4)	DRS from deconvolution (REH [2]; 5 Pick 3 pools)	DRS from deconvolution (REH [2]; 6 Pick 3 pools)	DRS from deconvolution (REH [2]; 7 Pick 3 pools)	DRS, REH, MAX (REH [1])	DRS, REH, None (REH [2])
N#Cc1ccnc(N2C(=O)CC[C@H]2C(=O)N(c2cncc(F)c2)[C@H](C(=O)NC2CC(F)(F)C2)c2ccccc2Cl)c1 [Ivosidenib]	3.12	3.55	0.11	0.00	0.53	0.58	0.49	–	–
C=CC(=O)Nc1cc(Nc2nccc(-c3cn(C)c4ccccc34)n2)c(OC)cc1N(C)CCN(C)C [Osimertinib]	0.10	0.00	1.84	0.99	–	–	–	0.00	2.01
CC1(C)CCC(CN2CCN(c3ccc(C(=O)NS(=O)(=O)c4ccc(NCC5CCOCC5)c([N+](=O)[O-])c4)c(Oc4cnc5[nH]ccc5c4)c3)CC2)=C(c2ccc(Cl)cc2)C1 [Venetoclax]	4.37	0.00	2.74	2.89	1.56	3.18	1.88	4.43	–
COc1cc2ncnc(Nc3ccc(F)c(Cl)c3)c2cc1OCCCN1CCOCC1 [Gefitinib]	0.00	0.00	2.96	3.02	–	–	–	4.06	3.15
Cc1[nH]c2ccccc2c1CCNCc1ccc(/C=C/C(=O)NO)cc1 [Panobinostat]	3.01	3.96	15.70	16.56	12.12	12.62	12.90	–	–
COc1c(OCCCN2CCOCC2)ccc2c1N=C(NC(=O)c1cnc(N)nc1)N1CCN=C21 [Copanlisib]	1.63	2.12	9.01	9.65	12.96	13.28	12.09	–	–
